Assay results reported in patent US10603319B2, “Pyrimidine derivatives and their use in treating or preventing a respiratory syncytial virus infection” (REVIRAL LIMITED, priority 2016, dated 2020).
“And” between values parts separate entries of the source, which are not always exact repeats. Equal values may be shown once.

How the values were obtained:
[1] = biological target: T1, RSV A2_F (Human respiratory syncytial virus A, UniProt P03420); assay: RSV fusion assay (luciferase reporter, HEK 293T/17 cells transfected with A2_F); assay type: cell-based; settings: Fusion activity IC50 μM, HEK 293T/17 cells, 24 hr
T1 construct: expressed in transfected cells; host or cells: HEK 293T/17
T1 sequence (P03420 137-574): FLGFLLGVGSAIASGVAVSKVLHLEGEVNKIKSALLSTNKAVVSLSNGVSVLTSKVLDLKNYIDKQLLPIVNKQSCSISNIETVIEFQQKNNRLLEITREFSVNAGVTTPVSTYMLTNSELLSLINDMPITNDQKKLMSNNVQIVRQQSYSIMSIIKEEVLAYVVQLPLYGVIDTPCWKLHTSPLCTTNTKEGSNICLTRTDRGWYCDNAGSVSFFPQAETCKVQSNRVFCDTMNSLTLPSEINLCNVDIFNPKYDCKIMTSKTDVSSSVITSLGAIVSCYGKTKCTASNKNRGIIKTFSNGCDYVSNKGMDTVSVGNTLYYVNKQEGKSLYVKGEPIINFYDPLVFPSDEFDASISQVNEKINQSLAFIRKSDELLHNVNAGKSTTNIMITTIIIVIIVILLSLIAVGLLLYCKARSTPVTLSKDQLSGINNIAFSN
T1 sequence (P03420 26-109): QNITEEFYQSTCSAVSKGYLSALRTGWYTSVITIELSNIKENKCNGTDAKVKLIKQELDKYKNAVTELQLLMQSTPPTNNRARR

[2] = tested on: RSV A2; assay: Plaque Reduction Assay 1 (Vero cells, immunostaining); assay type: cell-based; settings: two replicate values, read-out: RSV Plaque Reduction assays A2 (PRNT1) (n = 2) IC50
Description: Plaque Reduction Assay 1: Vero cells were seeded in 96-well plates in a volume of 100 μL of Optimem supplemented with 3% FCS at a concentration of 4×10^4 cells per well. After an overnight incubation at 37° C. in a humidified 5% CO2 atmosphere, the monolayer of cells should be approximately 90% confluent. Antiviral compounds were titrated in pre-warmed Serum Free (SF) Optimem in a U-bottom 96 well plate. For compounds in a DMSO solution, titration in 100% DMSO was performed first and each concentration added individually to a 2× final concentration at 4% DMSO in SF media before mixing with virus (2% final DMSO with virus). Media was then removed from cells and replaced with PBS (100 μl/well). RSV stock was thawed and diluted in SF Optimem media to 4000 PFU/mLl. An equal volume of virus was added to compounds on the titration plate. PBS was removed from cells which were then inoculated with the virus/compound solution (50 μL/well). Cells were incubated for 2 h in a 37° C.+5% CO2 humidified incubator to allow infection. Inoculum was removed and media (Optimem+1% FCS) added to cells (100 μl/well). Cells were subsequently incubated for 48 h at 37° C.+5% CO2 in a humidified incubator. Immunostaining Procedure: Media was removed from cells and the monolayer washed with PBS. Cells were fixed with ice cold 80% Acetone in PBS (100 μl/well) for 20 mins at −20° C. Fixative was removed and cells are dried for 30 mins with plates inverted. Blocking solution (5% skim milk powder in PBS-T) was added to cells (150 μL/well) and plates were incubated for 30 mins at room temperature. Blocking solution was removed and plates washed once with PBS-T. Primary antibody in blocking solution was added to plates (50 μl/well) and incubated for 1 h at 37° C. Plates were then washed 3 times with PBS-T. Secondary antibody in blocking solution was added to plates ([…]) and incubated for 1 h at 37° C. in the dark. Plates were washed as above and then dried for 10 mins. Plates were scanned on the Odyssey Imager (Li-Cor Biosciences) at a resolution of […], medium quality and level 5 intensity in the […]. Data Analysis: Images obtained were saved and plaque numbers counted with the aid of computer imaging software. EC50 values for compounds were derived from dose response curves [three variable log(inhibitor) vs response] obtained using Graphpad Prism software.

In the case of `NC1CCN(c2ncc(CN3C(=O)C4(CC4)c4ccc(F)cc43)c(N[C@H]3CC[C@H](O)CC3)n2)C1` (some centres unmarked) [Compound 2, 1′-((2-(3-Aminopyrrolidin-1-yl)-4-(((1r,4r)-4-hydroxycyclohexyl)amino)pyrimidin-5-yl)methyl)-6′-fluorospiro[cyclopropane-1,3′-indolin]-2′-one], the IC50 [1] is reported as 0.237 µM and the IC50 [2] is reported as 18.9 nM and 4.63 nM.
